From publication PMC2752672 (Biochemistry, 2009)
Like-named read-outs stand apart in the source and are kept apart here.

Tests used:
KOR [1] = biological target: T1, KOR (Homo sapiens, UniProt P41145); assay type: binding; conditions: read-out: Ki a
KOR [2] = biological target: T1, KOR; assay type: binding; conditions: read-out: Ki b
KOR [3] = biological target: T1, KOR; assay: biochemical; assay type: biochemical; conditions: for EC50: read-out: EC50 c
C57BL/6J mice = assay type: in vivo, mouse; conditions: for baseline startle activity: 120-dB stimulus, all doses; for prepulse-dependent PPI: all prepulse intensities
KOR [4] = biological target: T1, KOR; assay: biochemical; assay type: binding
[5] = storage stability of the compound; conditions: room temperature / prolonged storage

T1 sequence (P41145 whole entry): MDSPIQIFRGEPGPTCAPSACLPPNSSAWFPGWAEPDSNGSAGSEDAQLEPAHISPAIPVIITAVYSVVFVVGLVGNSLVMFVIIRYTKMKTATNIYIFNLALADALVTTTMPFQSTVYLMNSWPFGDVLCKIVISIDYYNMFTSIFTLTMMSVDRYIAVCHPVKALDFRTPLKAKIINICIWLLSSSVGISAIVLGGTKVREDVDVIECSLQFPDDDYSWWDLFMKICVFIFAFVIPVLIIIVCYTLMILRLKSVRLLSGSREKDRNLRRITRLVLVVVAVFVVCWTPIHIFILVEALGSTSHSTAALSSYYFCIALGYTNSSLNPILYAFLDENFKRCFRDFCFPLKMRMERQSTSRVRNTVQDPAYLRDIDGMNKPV

COC(=O)C1CC(OC(=O)C(C)Cl)C(=O)C2C1(C)CCC1C(=O)OC(c3ccoc3)CC12C (single isomer, unassigned) [RB-55-1, (22-S)-22-Chloro-22-methylsalvinorin A]
Ki (KOR [1]): 30 ± 15 nM | Ki (KOR [2]): 269 ± 48 nM | Relative Emax (KOR [3]): 99 +/− 12% | EC50 (KOR [3]): 160 nM

COC(=O)C1CC(OC(=O)C(C)Cl)C(=O)C2C1(C)CCC1C(=O)OC(c3ccoc3)CC12C (single isomer, unassigned) [RB-55-2, (22-R)-22-Chloro-22-methylsalvinorin A]
Ki (KOR [1]): 58 ± 32 nM | Ki (KOR [2]): > 3000 nM | Relative Emax (KOR [3]): 98 +/− 8% | EC50 (KOR [3]): 273 nM

Oc1ccc2c3c1O[C@H]1c4[nH]c5c(c4C[C@@]4(O)[C@@H](C2)N(CC2CC2)CC[C@]314)C[C@@]1(O)[C@H]2Cc3ccc(O)c4c3[C@@]1(CCN2CC1CC1)[C@H]5O4 [Nor-BNI, nor-binaltorphimine, reference compound]
antagonism of agonist-induced disruption of PPI (C57BL/6J mice; mouse, in vivo): antagonized salvinorin A and RB-64-induced disruption of PPI

COC(=O)[C@@H]1C[C@H](OC(=O)CCl)C(=O)[C@H]2[C@@]1(C)CC[C@H]1C(=O)O[C@H](c3ccoc3)C[C@]21C [RB-48, 22-Chlorosalvinorin A]
Ki (KOR [1]): 2.1 ± 0.8 nM | Ki (KOR [2]): 32 ± 15 nM | Relative Emax (KOR [3]): 85 ± 3% | EC50 (KOR [3]): 0.19 ± 0.01 nM | wash-resistant inhibition of binding (preliminary studies) (KOR [4]): resulted in wash-resistant inhibition of binding

COC(=O)[C@@H]1C[C@H](OC(=O)CBr)C(=O)[C@H]2[C@@]1(C)CC[C@H]1C(=O)O[C@H](c3ccoc3)C[C@]21C [RB-50, 22-Bromosalvinorin A]
Ki (KOR [1]): 1.5 ± 0.22 nM | Ki (KOR [2]): 39.6 ± 11.6 nM | Relative Emax (KOR [3]): 76 +/− 7% | EC50 (KOR [3]): 11 nM | irreversible inhibition of binding, tested as potential affinity ligand (KOR [4]): none showed significant irreversible inhibition of binding | stability on storage [5]: highly unstable at room temperature

COC(=O)C1CC(OC(=O)C(C)Cl)C(=O)C2C1(C)CCC1C(=O)OC(c3ccoc3)CC12C [RB-55, (22-R,S)-22-Chloro-22-methylsalvinorin A]
Ki (KOR [1]): 21 ± 3 nM | Ki (KOR [2]): 189 ± 70.1 nM | Relative Emax (KOR [3]): 83 +/− 10% | EC50 (KOR [3]): 35 nM

COC(=O)[C@@H]1C[C@H](OC(=O)CSC#N)C(=O)[C@H]2[C@@]1(C)CC[C@H]1C(=O)O[C@H](c3ccoc3)C[C@]21C [RB-64, 22-Thiocyanatosalvinorin A]
Emax (KOR [3]; read-out: Relative Emax): 95 ± 2% | maximum of KOR labeled (KOR [4]): 59% | wash-resistant inhibition of KOR binding (KOR [4]): 82% | EC50 (KOR [4]; EC50 for wash-resistant inhibition of binding): 9000 nM | Null Activity (mAmp displacement) (C57BL/6J mice; 0.005 mg/kg i.p., mice): 8.22 ± 3.73 mAmp displacement | PPI responses to the 12- and 16-dB prepulses (C57BL/6J mice; 0.005 mg/kg, p < 0.010): depressed responses | Null Activity (mAmp displacement) (C57BL/6J mice; 0.01 mg/kg i.p., mice): 16.81 ± 4.4 mAmp displacement | Null Activity (mAmp displacement) (C57BL/6J mice; 0.05 mg/kg i.p., mice): 64.89 ± 10.88 mAmp displacement | PPI responses to the 12- and 16-dB prepulses (C57BL/6J mice; 0.05 mg/kg, p < 0.052): increased the responses | Null Activity (mAmp displacement) (C57BL/6J mice; 0.1 mg/kg i.p., mice): 51.6 ± 12.16 mAmp displacement | overall PPI (overall inhibition) vs vehicle (C57BL/6J mice; 0.1 mg/kg i.p., p < 0.046): significant reduction in overall inhibition | PPI to the 4 dB prepulse vs vehicle (C57BL/6J mice; 0.005, 0.01, or 0.05 mg/kg, p < 0.047): enhanced relative to vehicle | overall PPI (overall inhibition) vs vehicle (C57BL/6J mice; 0.01 and 0.05 mg/kg i.p., p < 0.021): marked increases in overall inhibition | PPI to the 8-dB prepulse vs vehicle (C57BL/6J mice; 0.01 and 0.05 mg/kg, p < 0.031): increased PPI to the 8-dB prepulse | baseline startle activity (C57BL/6J mice): dose-dependent parabolic changes in baseline startle activity | prepulse-dependent PPI (C57BL/6J mice): disrupted prepulse-dependent PPI at all prepulse intensities | PPI responses to the 12- and 16-dB prepulses vs vehicle (C57BL/6J mice; highest dose (0.1 mg/kg), p < 0.003): significantly depressed compared to the vehicle control | in vivo efficacy relative to salvinorin A (C57BL/6J mice; in vivo studies (PPI), mice): 20 fold | null activity, in words (C57BL/6J mice; two highest doses (0.05, 0.1 mg/kg), compared to vehicle, p < 0.001): increased activity | null activity, in words (C57BL/6J mice; two lower doses (0.005, 0.01 mg/kg)): little effect on null activity | stability on storage [5]: stable compound and may be stored for prolonged time without decomposition

COCC(=O)O[C@H]1C[C@@H](C(=O)OC)[C@]2(C)CC[C@H]3C(=O)O[C@H](c4ccoc4)C[C@]3(C)[C@H]2C1=O [RB-65, 22-Methoxysalvinorin A]
Ki (KOR [1]): 5.7 ± 1.2 nM | Ki (KOR [2]): 431 ± 54.1 nM | Relative Emax (KOR [3]): 99 +/− 11% | EC50 (KOR [3]): 67 nM

COC(=O)C1CC(OC(=O)C(Cl)Cl)C(=O)C2C1(C)CCC1C(=O)OC(c3ccoc3)CC12C (stereo not shown) [RB-66, 22,22-Dichlorosalvinorin A]
Ki (KOR [1]): 911 ± 170 nM | Ki (KOR [2]): > 10000 nM | Relative Emax (KOR [3]): 103 +/− 14% | EC50 (KOR [3]): 1680 nM

COC(=O)[C@@H]1C[C@H](OC(C)=O)C(=O)[C@H]2[C@@]1(C)CC[C@H]1C(=O)O[C@H](c3ccoc3)C[C@]21C [Salvinorin A, reference compound]
effect on radioligand binding after incubation and washing (controls) (KOR [4]): did not substantially alter radioligand binding | Null Activity (mAmp displacement) (C57BL/6J mice; 0.25 mg/kg i.p., mice): 19.44 ± 5.83 mAmp displacement | Null Activity (mAmp displacement) (C57BL/6J mice; 0.5 mg/kg i.p., mice): 28.79 ± 3.99 mAmp displacement | null activity, in words (C57BL/6J mice; 0.5 mg/kg, compared to all other doses and vehicle, p < 0.001): significant increases in null activity | Null Activity (mAmp displacement) (C57BL/6J mice; 1.0 mg/kg i.p., mice): 13.63 ± 3.65 mAmp displacement | PPI at the 8-, 12-, and 16-dB prepulses vs vehicle (C57BL/6J mice; 2 mg/kg): marked reductions in PPI | PPI responses to 4 dB prepulse vs vehicle (C57BL/6J mice; 2 mg/kg): unchanged from the vehicle control | Null Activity (mAmp displacement) (C57BL/6J mice; 2.0 mg/kg i.p., mice): 13.76 ± 3.65 mAmp displacement | overall PPI (overall inhibition) vs vehicle (C57BL/6J mice; 2 mg/kg i.p., p < 0.044): significantly suppressed inhibition | PPI responses at the 8- and 12-dB prepulses vs vehicle (C57BL/6J mice; 0.25, 0.5, or 1 mg/kg): similar | overall PPI (overall inhibition) vs vehicle (C57BL/6J mice; 0.25, 0.5, or 1 mg/kg i.p.): similar | PPI to the 4-dB prepulse vs vehicle (C57BL/6J mice; 0.25, 0.5 or 1 mg/kg, p < 0.051): increased PPI to the 4-dB prepulse | baseline startle activity (C57BL/6J mice): dose-dependent parabolic changes in baseline startle activity | prepulse-dependent PPI (C57BL/6J mice): disrupted prepulse-dependent PPI at all prepulse intensities
